Test results published in paper PMC4912613, “A broad analysis of resistance development in the malaria parasite” (Nature Communications, 2016).

Assays:
[1] = system: PfATP4-Mut2 (PfATP4 P412L, parent W2); assay: Cross-resistance EC50 assay, PfATP4-Mut2; assay type: cell-based, Plasmodium falciparum
From the text: (§1) To evaluate potential overlapping activity against known antimalarial drug targets, we performed dose-response studies with each compound against our assembled set of drug-resistant lines and their corresponding parents, in an asexual blood stage proliferation assay (Table 1). Comparisons were made to the drug-sensitive strain 3D7 when a parent was unavailable (TM90C2A, W2 and Dd2). As laboratories conducted EC50 assays with different strains and protocols, all comparisons were made between assays from the same laboratory and under the same assay conditions. Compounds displaying >5-fold EC50 shifts relative to the parent or sensitive strain were flagged as having potentially non-novel targets. Average fold shifts per strain ranged from 0.82 to 2.34, with a median of 1.23 indicating there was not common resistance to any one resistant clone. No resistance patterns were observed when classifying the compounds based on chemical structure, but this was not surprising given the diversity of compounds chosen. […]
(§2) The 48-h assay was carried out in a 96-well format following standard methods using the ^3H-hypoxanthine incorporation assay. […] Radioactivity was measured using a microbeta counter. […] All assays were conducted in triplicate using three independently grown cultures, and EC50 values were determined using the XLfit add-in module for Excel (version 2.3.1) from Grafit (version 5.3.1.3), where parameter h is the assay hill slope, x is the compound concentration and y is the inhibition of growth effect. […]
(§3) Alternatively, a SYBR Green-based proliferation approach was used for the 72-h assay, as previously described. […] Following incubation, 10 × SYBR Green I (Invitrogen; supplied in 10,000 × concentration) in lysis buffer ([…], 5 mM EDTA, 0.16% Saponin wt per vol and 1.6% Triton X vol per vol) was added to the wells and the plates were incubated overnight at room temperature before plate reading. […]

[2] = system: 15 resistant strains and their parents; assay: Cross-resistance panel, asexual blood stage proliferation EC50 fold shifts (all strains); assay type: cell-based, Plasmodium falciparum; conditions: for EC50 fold-shifts in resistant lines relative to parent clones: loss of efficacy in some resistant lines
From the text: as §1, §2, §3

[3] = system: resistant parasites generated by MMV007564; assay: Cross-resistance to parasites selected with MMV007564; assay type: cell-based, Plasmodium falciparum
From the text: While we found an overall lack of pre-existing resistance, analysing the onset of resistance was critical, as compounds resulting in rapid resistance are not ideal for clinical development. We therefore sought to create drug-resistant parasites using a variety of different selection methods. We implemented either a high-dose method or a ramp-up/pulse method for our in vitro selections. Two of the 50 compounds—MMV028895 and MMV665824—were removed from the selection study during experimentation. […] Out of the remaining 48 compounds, resistant parasites were obtained for 23 (Supplementary Data 1). As each selection was performed in triplicate with three independent cultures, we succeeded in generating a total of 66 resistant cultures. Parasites resistant to MMV026596 were not obtained despite 100 days of selection, but the cultures acquired hypersensitivity to mefloquine with a 10-fold reduction in EC50 compared with its parental line, 3D7. For the remaining 24 compounds, acquisition of resistant parasites was unsuccessful despite numerous attempts over an extensive period of time.

Hepatocyte toxicity = assay type: cell-based, human; conditions: human; read-out: HepG2 EC50 (hepatocyte toxicity)
Method in brief: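 Duplicate 12-point dose curves, starting at 5 μM or 50 μM, gave EC50s for both parasite and host toxicity. Compound was added to human HepG2 hepatocytes 2 h before infection with freshly dissected P. berghei sporozoites. Surviving liver-stage forms were quantified by luminescence after 48 h.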

[4] = system: PfATP4-Mut1 (PfATP4 V178I, parent W2); assay: Cross-resistance EC50 assay, PfATP4-Mut1; assay type: cell-based, Plasmodium falciparum; conditions: loss of efficacy
From the text: as §1, with “clone.” for “clone. No resistance patterns were observed when classifying the compounds based on chemical structure, but this was not surprising given the diversity of compounds chosen.”
as §2

CC(C)c1cccc(C(NC(=O)C2Cc3ccccc3CN2C(=O)c2cccc(N3CCOCC3)c2)C2CCCC2)c1 (stereo not drawn) [MMV028038]
EC50 fold-shift, ATP4-Mut2 vs parent [1]: 5 ×

COc1ccccc1CNC(=O)CCn1c(=O)[nH]c2ccsc2c1=O [MMV019066]
EC50 fold-shifts in resistant lines relative to parent clones [2]: > 5 fold

Cc1c(C)n(Cc2ccc(F)cc2)c2ccc(C(=O)NCc3ccco3)cc12 [MMV008149]
EC50 fold-shifts in resistant lines relative to parent clones [2]: > 5 fold

CN(C)CCCN(C)C(=O)C1Cc2cc(-c3ccccc3)ccc2N1S(=O)(=O)c1ccccc1 (stereo not drawn) [MMV028895]
EC50 fold-shift, other Dd2 clones compared with 3D7, average ([2]; Dd2-derived clones, average): 5.5 ×
cross-resistance to resistant parasites generated by MMV007564 [3]: exhibited cross-resistance

CN(C)S(=O)(=O)c1cc(-c2ccc3nccc(-c4cccc(S(N)(=O)=O)c4)c3c2)cnc1N [MMV024038]
EC50 (Hepatocyte toxicity): 146 nM

CCN(CC)S(=O)(=O)c1ccc(-c2csc(Nc3ccc(C)c(C)c3)n2)cc1 [MMV009108]
EC50 fold-shift, ATP4-Mut2 vs parent [1]: 23 ×

O=C(Nc1ccsc1C(=O)NC1CCCCC1)c1ccc(F)cc1 [MMV665939]
EC50 fold-shift, PfATP4-Mut2 compared with 3D7 ([1]; loss of efficacy): 18.9 ×
EC50 fold-shift, PfATP4-Mut1 compared with 3D7 [4]: 16.6 ×
